“And” between values parts separate entries of the source, which are not always exact repeats. Identical values can stand only once.
Legend:
Format in all cases: functional, Homo sapiens
Design in all cases: dose or concentration left out as unconfirmed
Colon cancer organoid [1] = assay: Identification of compartment-specific drug sensitivities in O06 CRC organoid-stroma F06 CAF co-cultures. Organoid is transduced with Lucferase2-P2A-EGFP lentivirus, fibroblast with Renilla-dsRed lentivirus. Dual-Glo Luciferase assay is used to report viability data.
Colon cancer organoid [2] = assay: Identification of compartment-specific drug sensitivities in O14 CRC organoid-stroma F14 CAF co-cultures. Organoid is transduced with Lucferase2-P2A-EGFP lentivirus, fibroblast with Renilla-dsRed lentivirus. Dual-Glo Luciferase assay is used to report viability data.
Colon cancer organoid [3] = assay: Identification of compartment-specific drug sensitivities in O20 CRC organoid-stroma F20 CAF co-cultures. Organoid is transduced with Lucferase2-P2A-EGFP lentivirus, fibroblast with Renilla-dsRed lentivirus. Dual-Glo Luciferase assay is used to report viability data.
[4] = Transduced with Lucferase2-P2A-EGFP lentivirus
[5] = Transduced with Renilla-dsRed lentivirus

SMILES | Cell Viability (Colon cancer organoid [1]; [4]) | Cell Viability (Colon cancer organoid [1]; [5]) | Cell Viability (Colon cancer organoid [2]; [4]) | Cell Viability (Colon cancer organoid [2]; [5]) | Cell Viability (Colon cancer organoid [3]; [4]) | Cell Viability (Colon cancer organoid [3]; [5])
Cc1ccc(-c2ccc3c(ccc4sc5c(c43)NC[C@@H](C)NC5=O)n2)cn1 | 100.355% | 85.371% | 77.4963% | 56.184% | 154.003% | 70.7863%
CCOC(=O)c1c(/C(C#N)=C\N)c2ccc(Cl)c(Cl)c2n1C | 122.99% | 97.4073% | 89.9628% | 62.6784% | 91.9928% | 87.4636%
CCOc1cc(N2CCC(O)CC2)ccc1Nc1ncc2c(n1)N(C)c1ccccc1C(=O)N2C | 85.6087% | 128.987% | 113.616% | 107.398% | 81.3429% | 117.331%
CNc1nc(-c2ccc3c(N)n[nH]c3c2)cc(N2C[C@@H](C(=O)NC3CCCCC3)CC[C@H]2C)n1 | 59.8926% | 53.4401% | 65.7783% | 53.252% | 52.0118% | 121.574%
Cc1ccc(NC(=O)Nc2cc(C(F)(F)F)ccc2F)cc1Nc1ccc2c(c1)NC(=O)/C2=C\c1ccc[nH]1 | 46.1941% | 95.0963% | 123.441% | 77.7474% | 98.8429% | 67.3177%
OCCn1cc(-c2ccc3c(c2)CCC3=NO)c(-c2ccncc2)n1 | 81.3359% | 109.303% | 204.013% | 111.094% | 203.673% | 70.8995%
Nc1ccc(C(=O)Nc2cccc(-c3nc(N4CCOCC4)c4oc5ncccc5c4n3)c2)cn1 | 78.745% | 81.5262% | 65.9749% | 77.6378% | 141.773% | 75.1771%
O=C1[C@H](Cc2ccc(O)cc2)N2C(=O)CCN(C(=O)NCc3ccccc3)[C@H]2CN1Cc1cccc2ccccc12 | 79.2211% | 124.216% | 38.6094% | 83.3915% | 90.1159% | 144.616%
CCOC(=O)Nc1cc(-c2ccc(C)c(NS(C)(=O)=O)c2)nn2c(C)nnc12 | 112.605% | 266.102% | 91.5211% | 161.373% | 38.74% | 177.965%
COc1ccccc1-c1cc(Nc2cccc(CS(N)(=O)=O)c2)ncn1 | 105.6% | 95.8866% | 188.969% | 77.1823% | 105.142% | 97.4583%
COc1ccccc1C(=O)Nc1cc2c(cc1N1CCCC1)n(C)c(=O)n2C | – | – | – | – | 114.161% | 143.545%
Cc1ccc(C(=O)Nc2cccc(C(F)(F)F)c2)cc1Nc1nc(-c2cccnc2)nc2c1cnn2C | 60.2736% | 70.9034% | 129.491% | 76.0508% | 143.016% | 123.917%
CC1=C(C(=O)Nc2cc3cn[nH]c3cc2F)C(c2ccc(C(F)(F)F)cc2)CC(=O)N1 (centres undefined) | 110.512% | 74.1449% | 103.838% | 118.18% | 133.463% | 94.2958%
CCOc1cn(-c2ccc(F)cc2C)nc1C(=O)Nc1ccc(Oc2ccnc3cc(OC)c(OC)cc23)c(F)c1 | 87.51% and 89.4828% | 84.5689% and 64.7371% | 83.4563% and 72.9507% | 89.3323% and 81.5085% | 229.393% and 192.525% | 78.4446% and 96.4847%
COc1cc(-c2cn(C)c(=O)c3cnccc23)c(OC)cc1CN(C)C | 79.252% | 108.934% | 100.672% | 88.7606% | 61.6023% | 139.676%
CC(C)Oc1ccc(-c2c[nH]cc2CN(C)CCN)cc1 | 47.5822% | 178.793% | 53.8658% | 109.482% | 47.8011% | 252.195%
C=CC(=O)Nc1cccc(C(=O)Nc2ccc(Nc3cc(-c4[nH]c(SC)nc4C)ccn3)cc2)c1 | 87.3077% | 89.5907% | 116.406% | 116.909% | 175.79% | 71.728%
CCN(CC)S(=O)(=O)Nc1cccc(-c2ccc3c(NC(=O)C4CC4)n[nH]c3c2)c1 | 76.8554% | 107.031% | 139.261% | 96.9304% | 76.1767% | 136.148%
CC(C)C(=O)Nc1n[nH]c2cc(-c3cccc(NS(=O)(=O)C4CC4)c3)ccc12 | 78.2505% | 111.722% | 122.353% | 104.553% | 85.5363% | 102.387%
CN(C)C(=O)/C(C#N)=C/c1ccc(-c2nc3cnc4[nH]ccc4c3n2C2CCCCC2)o1 | 57.9428% | 82.2998% | 107.956% | 74.8679% | 75.2682% | 130.215%
Cl.Cl.NC1(c2ccc(-c3nc4ccn5c(=O)[nH]nc5c4cc3-c3ccccc3)cc2)CCC1 | 59.9467% | 67.7481% | 76.882% | 55.4067% | 44.0229% | 145.22%
Cn1cc(-c2ccc3occ(-c4ccccc4-c4ccccc4)c3n2)cn1 | 43.2566% | 104.957% | 109.875% | 78.5125% | 88.7548% | 89.3741%
Cn1cc(-c2ccc3occ(-c4cccc(-c5ccncc5)c4)c3n2)cn1 | 70.7683% | 132.305% | 87.0505% | 83.2978% | 65.7439% | 132.411%
CN(C)C(=O)/C(C#N)=C/c1ccc(-c2nc3cnc4c(ccn4C)c3n2C2CCCCC2)o1 | 28.6002% | 127.582% | 110.125% | 86.2886% | 49.7098% | 127.191%
CS(=O)(=O)N1CCN(Cc2cc3nc(-c4cccc5[nH]ncc45)nc(N4CCOCC4)c3s2)CC1 [PICTILISIB] | 43.124% | 60.0718% | 42.7401% | 54.6957% | – | –
